From ChEMBL document CHEMBL1201862, “PubChem BioAssay data set” (2004)
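96-well plates; 48 h exposure; 5 concentrations. Endpoints by linear interpolation between flanking doses. Not reached: highest tested concentration assigned. GI50 = concentration required for 50% inhibition of growth.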 Activity calls are given as the source filed them. Rule as the data show it: active = GI50 up to about 1.1 µM and inactive = higher.

Legend:
Test in all cases: NCI tumour cell line growth inhibition, 48 h
786-0 = system: 786-0
A549 = system: A549
CAKI-1 = system: CAKI-1
CCRF-CEM = system: CCRF-CEM
COLO 205 = system: COLO 205
DU-145 = system: DU-145
EKVX = system: EKVX
HCC 2998 = system: HCC 2998
HCT-15 = system: HCT-15
HL-60 = system: HL-60
HOP-62 = system: HOP-62
HT-29 = system: HT-29
IGROV-1 = system: IGROV-1
K562 = system: K562
KM12 = system: KM12
LOX IMVI = system: LOX IMVI
M14 = system: M14
MCF7 = system: MCF7
MDA-N = system: MDA-N
MOLT-4 = system: MOLT-4
Malme-3M = system: Malme-3M
NCI-H23 = system: NCI-H23
OVCAR-8 = system: OVCAR-8
PC-3 = system: PC-3
RPMI-8226 = system: RPMI-8226
SF-268 = system: SF-268
SF-295 = system: SF-295
SK-MEL-28 = system: SK-MEL-28
SK-MEL-5 = system: SK-MEL-5
SK-OV-3 = system: SK-OV-3
SN12C = system: SN12C
SNB-75 = system: SNB-75
SR = system: SR
SW-620 = system: SW-620
T47D = system: T47D
TK-10 = system: TK-10
UACC-257 = system: UACC-257
UACC-62 = system: UACC-62
A498 = system: A498
HCT-116 = system: HCT-116
HOP-92 = system: HOP-92
NCI-H226 = system: NCI-H226
NCI-H460 = system: NCI-H460
NCI/ADR-RES = system: NCI/ADR-RES
SK-MEL-2 = system: SK-MEL-2
SNB-19 = system: SNB-19
U-251 = system: U-251
UO-31 = system: UO-31

COc1ccc(C2=C(OC(=O)N(C)C)c3cccn3-c3cc(C(F)(F)F)ccc3S2)cc1
GI50 (786-0): > 10 µM (inactive)
GI50 (A549): > 10 µM (inactive)
GI50 (CAKI-1): > 10 µM (inactive)
GI50 (CCRF-CEM): > 10 µM (inactive)
GI50 (COLO 205): > 10 µM (inactive)
GI50 (DU-145): > 10 µM (inactive)
GI50 (EKVX): > 10 µM (inactive)
GI50 (HCC 2998): > 10 µM (inactive)
GI50 (HCT-15): > 10 µM
GI50 (HL-60): 6.03 µM (inactive)
GI50 (HOP-62): > 10 µM (inactive)
GI50 (HT-29): > 10 µM (inactive)
GI50 (IGROV-1): > 10 µM (inactive)
GI50 (K562): > 10 µM (inactive)
GI50 (KM12): 0.467 µM (active)
GI50 (LOX IMVI): > 10 µM (inactive)
GI50 (M14): > 10 µM (inactive)
GI50 (MCF7): 9.29 µM (inactive)
GI50 (MDA-N): > 10 µM (inactive)
GI50 (MOLT-4): 4.79 µM (inactive)
GI50 (Malme-3M): > 10 µM (inactive)
GI50 (NCI-H23): 8.81 µM (inactive)
GI50 (OVCAR-8): > 10 µM (inactive)
GI50 (PC-3): 4.3 µM (inactive)
GI50 (RPMI-8226): 3.75 µM (inactive)
GI50 (SF-268): > 10 µM (inactive)
GI50 (SF-295): > 10 µM (inactive)
GI50 (SK-MEL-28): > 10 µM (inactive)
GI50 (SK-MEL-5): > 10 µM (inactive)
GI50 (SK-OV-3): > 10 µM (inactive)
GI50 (SN12C): > 10 µM (inactive)
GI50 (SNB-75): > 10 µM (inactive)
GI50 (SR): 4.99 µM (inactive)
GI50 (SW-620): > 10 µM (inactive)
GI50 (T47D): 3.47 µM (inactive)
GI50 (TK-10): > 10 µM (inactive)
GI50 (UACC-257): > 10 µM (inactive)
GI50 (UACC-62): > 10 µM (inactive)

CN1C/C(=C\c2ccccc2[N+](=O)[O-])C(=O)/C(=C/c2ccccc2[N+](=O)[O-])C1
GI50 (786-0): 0.192 µM (active)
GI50 (A498): 1.93 µM (inactive)
GI50 (A549): 3.43 µM (inactive)
GI50 (COLO 205): 0.164 µM (active)
GI50 (DU-145): 1.51 µM (inactive)
GI50 (HCC 2998): 1.45 µM (inactive)
GI50 (HCT-116): 0.215 µM (active)
GI50 (HCT-15): 0.251 µM
GI50 (HL-60): 0.0796 µM (active)
GI50 (HOP-62): 2.95 µM (inactive)
GI50 (HOP-92): 1.09 µM (active)
GI50 (IGROV-1): 0.442 µM (active)
GI50 (KM12): 1.24 µM (inactive)
GI50 (MCF7): 0.408 µM (active)
GI50 (MOLT-4): 0.192 µM (active)
GI50 (NCI-H226): 3.09 µM (inactive)
GI50 (NCI-H460): 2.57 µM (inactive)
GI50 (NCI/ADR-RES): 1.55 µM (inactive)
GI50 (PC-3): 1.14 µM (inactive)
GI50 (SK-MEL-2): 2.09 µM (inactive)
GI50 (SK-MEL-5): 1.32 µM (inactive)
GI50 (SK-OV-3): 2.75 µM (inactive)
GI50 (SNB-19): 6.1 µM (inactive)
GI50 (SNB-75): 1.86 µM (inactive)
GI50 (SW-620): 0.173 µM (active)
GI50 (TK-10): 0.893 µM (active)
GI50 (U-251): 1.7 µM (inactive)
GI50 (UACC-62): 1.31 µM (inactive)
GI50 (UO-31): 0.373 µM (active)
